Measurements as given in patent publication US8575167B2, “Spiro compounds having stearoyl-CoA desaturase action” (Takeda Pharmaceutical Company Limited, priority 2007, dated 2013).

These compounds were tested against T1, SCD (Rattus norvegicus, UniProt P07308) (assay: Measurement of SCD inhibitory activity using microsome (TLC detection system)). Conditions: rat liver microsome (20 μg), 15 min, [14C] stearoyl-CoA; test compound (10 mM) diluted to 3/1000 with 3× buffer, 10 μL in 30 μL reaction.
T1 construct: an enzyme reaction using rat liver microsome (20 μg) was performed for 15 min; from tissue; host or cells: rat liver microsome fraction
T1 sequence (P07308 1-358): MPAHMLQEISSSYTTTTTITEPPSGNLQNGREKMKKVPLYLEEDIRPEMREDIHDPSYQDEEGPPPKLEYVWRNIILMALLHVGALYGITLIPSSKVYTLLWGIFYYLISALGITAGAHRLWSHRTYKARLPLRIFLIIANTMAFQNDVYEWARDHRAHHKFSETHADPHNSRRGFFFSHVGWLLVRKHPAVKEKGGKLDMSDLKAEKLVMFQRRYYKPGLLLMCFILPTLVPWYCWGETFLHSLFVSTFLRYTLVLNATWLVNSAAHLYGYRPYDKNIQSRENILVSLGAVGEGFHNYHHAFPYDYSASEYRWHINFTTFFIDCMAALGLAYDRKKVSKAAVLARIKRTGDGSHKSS
Format: biochemical
Experimental: (Test Method: Measurement of SCD Inhibitory Activity Using Microsome (TLC Detection System))
A test compound (10 mM) diluted with DMSO in advance was secondarily diluted to 3/1000 with 3× buffer (300 mmol/L NaH2PO4 [pH 7.4], 450 mM KCl, 30 mM NaF, 9 mM MgCl2, 4.5 mM glutathione [reduced form], 0.3% BSA [fatty acid free, SIGMA]). The test compound (10 μL) diluted with the assay buffer was dispensed to a PP 96-deep well block, and a microsome fraction (10 μL) diluted with a microsome buffer was added thereto. The enzyme reaction was started by the addition of 10 μL of [^14C] stearoyl-CoA (American Radiolabeled Chemicals [ARC], Inc.) diluted to 10 μCi/mL with 9 mmol/L NADH. For evaluation of the compound, an enzyme reaction using rat liver microsome (20 μg) was performed for 15 min. The reaction was quenched by the addition of 10 μL of 2.5N NaOH, a plate seal was applied, and the reaction mixture was incubated overnight in a dry heater set to 65° C. to allow saponification. Solvent extraction of fatty acid was based on the Bligh&Dyer method (1). Formic acid:methanol:chloroform (1:6:3) (200 μL) was added, the state of single layer was maintained, the mixture was sufficiently stirred, and pure water (120 μL) was added to allow separation into two layers. The lower chloroform layer (10 μL) was spotted on reversed-phase TLC plate (RP-18, 1154230001, Merck Japan, Ltd.) and developed with acetonitrile:pure water:acetic:acid (95:4.5:0.5). The TLC plate was dried and transferred onto an Imaging Plate (Fuji Photo Film Co., Ltd.) for not less than 5 hr. For detection, BAS-5000 (Fuji Photo Film Co., Ltd) was used and the obtained spot images were converted to numerical values using Multi Gauge Ver2.3 (Fuji Photo Film Co., Ltd), based on which the SCD activity inhibitory rate (%) was determined.
In the case of `Cc1noc(-c2ccc(N3CCC4(COc5ccccc54)C3)nn2)n1` (stereo not drawn) [Example 179 (short retention time), 1′-[6-(3-methyl-1,2,4-oxadiazol-5-yl)pyridazin-3-yl]spiro[1-benzofuran-3,3′-pyrrolidine]], the “SCD activity inhibitory rate (%)” value is reported as 100%.
`Cc1noc(-c2ccc(N3CCC4(C3)OCc3ccccc34)nn2)n1` (stereo not drawn) [Example 178, 1′-[6-(3-methyl-1,2,4-oxadiazol-5-yl)pyridazin-3-yl]-3H-spiro[2-benzofuran-1,3′-pyrrolidine]] was tested, and the “SCD activity inhibitory rate (%)” value was 97%.
In the case of `Cc1noc(-c2ccc(N3CCC4(COc5ccccc54)C3)nn2)n1` (stereo not drawn) [Example 179 (long retention time), 1′-[6-(3-methyl-1,2,4-oxadiazol-5-yl)pyridazin-3-yl]spiro[1-benzofuran-3,3′-pyrrolidine]], the “SCD activity inhibitory rate (%)” value is reported as 96%.
For `Cc1noc(-c2ccc(N3CCC4(C3)OCc3ccccc34)nn2)n1` (stereo not drawn) [Example 177, 1′-[6-(3-methyl-1,2,4-oxadiazol-5-yl)pyridazin-3-yl]-3H-spiro[2-benzofuran-1,3′-pyrrolidine]], the “SCD activity inhibitory rate (%)” value was 99%.

Same assay, conditions: rat liver microsome (20 μg), 15 min, [14C] stearoyl-CoA; test compound (10 mM) diluted to 3/1000 with 3× buffer, 10 μL in 30 μL reaction; read-out: SCD activity inhibitory rate (%)
`Cc1nsc(-c2ccc(N3CCC4(C=Cc5ccccc5O4)CC3)nn2)n1` [Example 20, 1′-[6-(3-methyl-1,2,4-thiadiazol-5-yl)pyridazin-3-yl]spiro[chromene-2,4′-piperidine]] gave an inhibition at 10 µM of 98%.
For `Cc1nsc(-c2ccc(N3CCC4(CC3)Cc3ccccc3O4)nn2)n1` [Example 4, 1′-[6-(3-methyl-1,2,4-thiadiazol-5-yl)pyridazin-3-yl]-3H-spiro[1-benzofuran-2,4′-piperidine]], the inhibition at 10 µM was 97%.
In the case of `Cc1noc(-c2ccc(N3CCC4(C3)C(=O)N(C)c3ccccc34)nn2)n1` (stereo not drawn) [Example 159, 1-methyl-1′-[6-(3-methyl-1,2,4-oxadiazol-5-yl)pyridazin-3-yl]spiro[indole-3,3′-pyrrolidin]-2(1H)-one], the inhibition at 10 µM is reported as 99%.
`C1=CC2(CCN(c3ccc(-c4ncns4)nn3)CC2)c2ccccc21` [Example 11, 1′-[6-(1,2,4-thiadiazol-5-yl)pyridazin-3-yl]spiro[indene-1,4′-piperidine]] showed an inhibition at 10 µM of 93%.
`OCc1noc(-c2ccc(N3CCC4(CC3)COc3ccccc34)nn2)n1` [Example 143, {5-[6-(1′H-spiro[1-benzofuran-3,4′-piperidin]-1′-yl)pyridazin-3-yl]-1,2,4-oxadiazol-3-yl}methanol] gave an inhibition at 10 µM of 100%.
For `Cc1nc(-c2ccc(N3CCC4(C3)OCc3ccccc34)nn2)no1` (stereo not drawn) [Example 150, 1′-[6-(5-methyl-1,2,4-oxadiazol-3-yl)pyridazin-3-yl]-3H-spiro[2-benzofuran-1,3′-pyrrolidine]], the inhibition at 10 µM was 99%.
`O=C(N[C@H]1C[C@@H]1c1ccccc1)c1ccc(N2CCC3(C=Cc4ccccc43)CC2)nn1` [Example 126, N-[(1S,2R)-2-phenylcyclopropyl]-6-(1′H-spiro[indene-1,4′-piperidin]-1′-yl)pyridazine-3-carboxamide] was tested, and the inhibition at 10 µM was 98%.
`O=C(CNC(=O)c1ccc(N2CCC3(C=Cc4ccccc43)CC2)nn1)c1ccccc1` [Example 55, N-(2-oxo-2-phenylethyl)-6-(1′H-spiro[indene-1,4′-piperidin]-1′-yl)pyridazine-3-carboxamide] gave an inhibition at 10 µM of 99%.
Compound `Cc1nsc(-c2ccc(N3CCC4(CC3)CN(c3ccccc3)C(=O)CO4)nn2)n1` [Example 32, 9-[6-(3-methyl-1,2,4-thiadiazol-5-yl)pyridazin-3-yl]-4-phenyl-1-oxa-4,9-diazaspiro[5.5]undecan-3-one] has an inhibition at 10 µM of 94%.
Compound `Cc1nsc(-c2ccc(N3CCC4(C=Cc5ccccc54)CC3)nn2)n1` [Example 2, 1′-[6-(3-methyl-1,2,4-thiadiazol-5-yl)pyridazin-3-yl]spiro[indene-1,4′-piperidine]] has an inhibition at 10 µM of 99%.
With `OCc1nc(-c2ccc(N3CCC4(CC3)COc3ccccc34)nn2)no1` [Example 148, {3-[6-(1′H-spiro[1-benzofuran-3,4′-piperidin]-1′-yl)pyridazin-3-yl]-1,2,4-oxadiazol-5-yl}methanol] the inhibition at 10 µM was 100%.
For `O=C(NCC(O)Cc1ccccc1)c1ccc(N2CCC3(C=Cc4ccccc43)CC2)nn1` (stereo not drawn) [Example 86, N-(2-hydroxy-3-phenylpropyl)-6-(1′H-spiro[indene-1,4′-piperidin]-1′-yl)pyridazine-3-carboxamide], the inhibition at 10 µM was 100%.
Compound `Cc1noc(-c2ccc(N3CCC4(Cc5ccccc5O4)C3)nn2)n1` (stereo not drawn) [Example 170, 1′-[6-(3-methyl-1,2,4-oxadiazol-5-yl)pyridazin-3-yl]-3H-spiro[1-benzofuran-2,3′-pyrrolidine]] has an inhibition at 10 µM of 100%.
In the case of `Cc1nsc(-c2ccc(N3CCC4(COc5ccccc54)C3)nn2)n1` (stereo not drawn) [Example 50, 1′-[6-(3-methyl-1,2,4-thiadiazol-5-yl)pyridazin-3-yl]spiro[1-benzofuran-3,3′-pyrrolidine]], the inhibition at 10 µM is reported as 99%.
In the case of `Cc1nsc(-c2ccc(N3CCC4(CC3)CN(c3cccc(F)c3)C(=O)O4)nn2)n1` [Example 29, 3-(3-fluorophenyl)-8-[6-(3-methyl-1,2,4-thiadiazol-5-yl)pyridazin-3-yl]-1-oxa-3,8-diazaspiro[4.5]decan-2-one], the inhibition at 10 µM is reported as 99%.
With `Cc1nsc(-c2ccc(N3CCC4(CC3)NC(=O)c3ccccc3O4)nn2)n1` [Example 31, 1′-[6-(3-methyl-1,2,4-thiadiazol-5-yl)pyridazin-3-yl]spiro[1,3-benzoxazine-2,4′-piperidin]-4(3H)-one] the inhibition at 10 µM was 92%.
With `OCc1noc(-c2ccc(N3CCC4(COc5ccccc54)C3)nn2)n1` (stereo not drawn) [Example 157, {5-[6-(1′H-spiro[1-benzofuran-3,3′-pyrrolidin]-1′-yl)pyridazin-3-yl]-1,2,4-oxadiazol-3-yl}methanol] the inhibition at 10 µM was 100%.
`Cc1noc(-c2ccc(N3CCC4(COc5ccccc54)C3)nn2)n1` (stereo not drawn) [Example 51, 1′-[6-(3-methyl-1,2,4-oxadiazol-5-yl)pyridazin-3-yl]spiro[1-benzofuran-3,3′-pyrrolidine]] showed an inhibition at 10 µM of 97%.
`CC1CSC(c2ccc(N3CCC4(CC3)COc3ccccc34)nn2)=N1` (stereo not drawn) [Example 146, 1′-[6-(4-methyl-4,5-dihydro-1,3-thiazol-2-yl)pyridazin-3-yl]spiro[1-benzofuran-3,4′-piperidine]] showed an inhibition at 10 µM of 97%.
With `OCc1noc(-c2ccc(N3CCC4(C3)OCc3ccccc34)nn2)n1` (stereo not drawn) [Example 156, {5-[6-(1′H,3H-spiro[2-benzofuran-1,3′-pyrrolidin]-1′-yl)pyridazin-3-yl]-1,2,4-oxadiazol-3-yl}methanol] the inhibition at 10 µM was 100%.
Work on `Cc1nsc(-c2ccc(N3CCC4(CC3)CC(=O)c3ccccc3O4)nn2)n1` [Example 5, 1′-[6-(3-methyl-1,2,4-thiadiazol-5-yl)pyridazin-3-yl]spiro[chromene-2,4′-piperidin]-4(3H)-one] yielded an inhibition at 10 µM of 100%.
`Cc1nsc(-c2ccc(N3CCC4(CC3)COc3ccccc34)nn2)n1` [Example 17, 1′-[6-(3-methyl-1,2,4-thiadiazol-5-yl)pyridazin-3-yl]spiro[1-benzofuran-3,4′-piperidine]] was tested, and the inhibition at 10 µM was 100%.
With `O=C(NCCc1cccnc1)c1ccc(N2CCC3(C=Cc4ccccc43)CC2)nn1` [Example 74, N-(2-(pyridin-3-yl)ethyl)-6-(1′H-spiro[indene-1,4′-piperidin]-1′-yl)pyridazine-3-carboxamide] the inhibition at 10 µM was 98%.
Compound `Cc1noc(-c2ccc(N3CCC4(C3)OCc3ccccc34)nn2)n1` (stereo not drawn) [Example 43, 1′-[6-(3-methyl-1,2,4-oxadiazol-5-yl)pyridazin-3-yl]-3H-spiro[2-benzofuran-1,3′-pyrrolidine]] has an inhibition at 10 µM of 100%.
In the case of `Cc1noc(-c2ccc(N3CCC4(CC3)CN(c3ccc(F)cc3)C(=O)O4)nn2)n1` [Example 47, 3-(4-fluorophenyl)-8-[6-(3-methyl-1,2,4-oxadiazol-5-yl)pyridazin-3-yl]-1-oxa-3,8-diazaspiro[4.5]decan-2-one], the inhibition at 10 µM is reported as 93%.
Work on `O=C(NCC(O)c1ccccc1)c1ccc(N2CCC3(C=Cc4ccccc43)CC2)nn1` (stereo not drawn) [Example 60, N-(2-hydroxy-2-phenylethyl)-6-(1′H-spiro[indene-1,4′-piperidin]-1′-yl)pyridazine-3-carboxamide] yielded an inhibition at 10 µM of 98%.
